Experimental data from ChEMBL document CHEMBL4024712, “Synthesis, stability and mechanistic studies of potent anticryptococcal hexapeptides” (Eur J Med Chem, 2017).
Converted amounts (≈) assume the structure as drawn. Non-standard residues stand in square brackets, D forms with d. Residues, ends and D or L forms follow the SMILES beside them. Ala(9-anthryl) = N[C@@H](Cc1c2ccccc2cc2ccccc12)C(=O)O; His(τ-Bzl) = N[C@@H](Cc1cn(Cc2ccccc2)cn1)C(=O)O; Phe(4-Me) = Cc1ccc(C[C@H](N)C(=O)O)cc1; Bta = N[C@@H](Cc1csc2ccccc12)C(=O)O; Cha = N[C@@H](CC1CCCCC1)C(=O)O; Phg = N[C@H](C(=O)O)c1ccccc1; Orn = NCCC[C@H](N)C(=O)O

Key:
[1] = system: Cryptococcus neoformans; assay: Antifungal activity against Cryptococcus neoformans ATCC 90113 after 68 to 72 hrs by Alamar blue assay; assay type: functional
[2] = system: Staphylococcus aureus; assay: Anti-bacterial activity against Staphylococcus aureus ATCC 29213 by CLSI method; assay type: functional; details: Staphylococcus aureus, ATCC 29213
[3] = system: Aspergillus fumigatus; assay: Antifungal activity against Aspergillus fumigatus ATCC 90906 after 68 to 72 hrs by Alamar blue assay; assay type: functional
[4] = system: Mycobacterium intracellulare; assay: Anti-bacterial activity against Mycobacterium intracellulare ATCC 23068 after 68 to 72 hrs by Alamar blue assay; assay type: functional, cell-based; details: for MIC: Mycobacterium intracellulare, ATCC 23068
[5] = system: Pseudomonas aeruginosa; assay: Anti-bacterial activity against Pseudomonas aeruginosa ATCC 27853 by CLSI method; assay type: functional
[6] = system: Vero; assay: Cytotoxicity against African green monkey Vero cells up to 10 ug/ml after 48 hrs by neutral red dye based assay; assay type: cell-based; details: chlorocebus sabaeus
[7] = system: Pichia kudriavzevii; assay: Fungicidal activity against Candida krusei ATCC 6258 after 18 to 24 hrs by Alamar blue assay; assay type: functional
[8] = system: Staphylococcus aureus; assay: Bactericidal activity against Staphylococcus aureus ATCC 29213 by CLSI method; assay type: functional
[9] = system: Escherichia coli; assay: Bactericidal activity against Escherichia coli ATCC 35218 by CLSI method; assay type: functional
[10] = system: Escherichia coli; assay: Anti-bacterial activity against Escherichia coli ATCC 35218 by CLSI method; assay type: functional; details: for MIC: Escherichia coli, ATCC 35218
[11] = system: Nakaseomyces glabratus; assay: Antifungal activity against Candida glabrata ATCC 90030 after 18 to 24 hrs by Alamar blue assay; assay type: functional; details: for MIC: Nakaseomyces glabratus, ATCC 90030
[12] = system: Mycobacterium intracellulare; assay: Bactericidal activity against Mycobacterium intracellulare ATCC 23068 after 68 to 72 hrs by Alamar blue assay; assay type: functional
[13] = system: Staphylococcus aureus; assay: Anti-bacterial activity against methicillin-resistant Staphylococcus aureus ATCC 33591 by CLSI method; assay type: functional; details: Staphylococcus aureus, ATCC 33591
[14] = system: Pichia kudriavzevii; assay: Antifungal activity against Candida krusei ATCC 6258 after 18 to 24 hrs by Alamar blue assay; assay type: functional; details: Pichia kudriavzevii, ATCC 6258
[15] = system: Candida albicans; assay: Antifungal activity against Candida albicans ATCC 90028 after 18 to 24 hrs by Alamar blue assay; assay type: functional; details: for MIC: Candida albicans, ATCC 90028
[16] = system: Nakaseomyces glabratus; assay: Fungicidal activity against Candida glabrata ATCC 90030 after 18 to 24 hrs by Alamar blue assay; assay type: functional
[17] = system: Staphylococcus aureus; assay: Bactericidal activity against methicillin-resistant Staphylococcus aureus ATCC 33591 by CLSI method; assay type: functional
[18] = system: Candida albicans; assay: Fungicidal activity against Candida albicans ATCC 90028 after 18 to 24 hrs by Alamar blue assay; assay type: functional
[19] = system: Cryptococcus neoformans; assay: Fungicidal activity against Cryptococcus neoformans ATCC 90113 after 68 to 72 hrs by Alamar blue assay; assay type: functional

Row | SMILES | MIC [1] | MIC [2] | IC50 [3] | MIC [4] | IC50 [5] | Activity [6] | MFC [7] | MBC [8] | MBC [9] | MIC [10] | IC50 [11] | MBC [12] | MIC [13] | MIC [14] | IC50 [15] | IC50 [4] | IC50 [10] | MIC [11] | MBC [17] | MIC [15] | also measured
1 | Cc1ccc(C[C@H](NC(=O)[C@@H](Cc2ccccc2)NC(=O)[C@@H](Cc2c[nH]c3ccccc23)NC(=O)[C@@H](N)CCCCN)C(=O)N[C@H](Cc2ccccc2)C(=O)N[C@@H](Cc2cn(Cc3ccccc3)cn2)C(N)=O)cc1 (H-K[dW][dF][Phe(4-Me)][dF][His(τ-Bzl)]-NH2) | 2.5 µg/mL (≈ 2.46 µM) | 20 µg/mL (≈ 19.7 µM) | Not Active | 20 µg/mL (≈ 19.7 µM) | Not Active | Non-Toxic | 20 µg/mL (≈ 19.7 µM) | 20 µg/mL (≈ 19.7 µM) | 20 µg/mL (≈ 19.7 µM) | 20 µg/mL (≈ 19.7 µM) | Not Active | 20 µg/mL (≈ 19.7 µM) | 20 µg/mL (≈ 19.7 µM) | 20 µg/mL (≈ 19.7 µM) | Not Active | – | – | – | – | – | –
2 | CC[C@H](C)[C@H](NC(=O)[C@H](CC1CCCCC1)NC(=O)[C@@H](Cc1c[nH]c2ccccc12)NC(=O)[C@@H](N)CCCN)C(=O)N[C@@H](Cc1csc2ccccc12)C(=O)N[C@@H](Cc1cn(Cc2ccccc2)cn1)C(N)=O (H-[Orn][dW][Cha]I[Bta][His(τ-Bzl)]-NH2) | 1.25 µg/mL (≈ 1.23 µM) | – | Not Active | – | Not Active | Non-Toxic | 20 µg/mL (≈ 19.7 µM) | – | – | – | – | – | – | – | Not Active | Not Active | Not Active | 20 µg/mL (≈ 19.7 µM) | – | – | IC50 ([2]; read-out: IC50): 20 µg/mL (≈ 19.7 µM); MFC [16]: 20 µg/mL (≈ 19.7 µM)
3 | Cc1ccc(C[C@H](NC(=O)[C@@H](Cc2ccccc2)NC(=O)[C@@H](Cc2c[nH]c3ccccc23)NC(=O)[C@@H](N)CCCNC(=N)N)C(=O)N[C@H](Cc2ccccc2)C(=O)N[C@@H](Cc2cn(Cc3ccccc3)cn2)C(N)=O)cc1 (H-R[dW][dF][Phe(4-Me)][dF][His(τ-Bzl)]-NH2) | 2.5 µg/mL (≈ 2.4 µM) | – | Not Active | – | Not Active | Non-Toxic | – | 20 µg/mL (≈ 19.2 µM) | 20 µg/mL (≈ 19.2 µM) | 10 µg/mL (≈ 9.59 µM) | Not Active | 10 µg/mL (≈ 9.59 µM) | 20 µg/mL (≈ 19.2 µM) | 20 µg/mL (≈ 19.2 µM) | – | – | – | – | 20 µg/mL (≈ 19.2 µM) | 20 µg/mL (≈ 19.2 µM) | MFC [18]: 20 µg/mL (≈ 19.2 µM); MFC [19]: 2.5 µg/mL (≈ 2.4 µM)
4 | CC[C@H](C)[C@H](NC(=O)[C@H](CC1CCCCC1)NC(=O)[C@@H](Cc1c[nH]c2ccccc12)NC(=O)[C@@H](N)CCCN)C(=O)N[C@@H](Cc1c2ccccc2cc2ccccc12)C(=O)N[C@@H](Cc1cn(Cc2ccccc2)cn1)C(N)=O (H-[Orn][dW][Cha]I[Ala(9-anthryl)][His(τ-Bzl)]-NH2) | 1.25 µg/mL (≈ 1.18 µM) | 5 µg/mL (≈ 4.72 µM) | Not Active | – | Not Active | Non-Toxic | 10 µg/mL (≈ 9.45 µM) | – | – | – | – | – | 10 µg/mL (≈ 9.45 µM) | – | – | Not Active | Not Active | 20 µg/mL (≈ 18.9 µM) | 10 µg/mL (≈ 9.45 µM) | – | MFC [18]: 20 µg/mL (≈ 18.9 µM); MFC [16]: 20 µg/mL (≈ 18.9 µM)
5 | NCCC[C@H](N)C(=O)N[C@H](Cc1c[nH]c2ccccc12)C(=O)N[C@@H](CC1CCCCC1)C(=O)N[C@H](C(=O)N[C@H](Cc1ccccc1)C(=O)N[C@@H](Cc1cn(Cc2ccccc2)cn1)C(N)=O)c1ccccc1 (H-[Orn][dW][Cha][Phg][dF][His(τ-Bzl)]-NH2) | – | 20 µg/mL (≈ 20.4 µM) | Not Active | – | Not Active | Non-Toxic | 10 µg/mL (≈ 10.2 µM) | 20 µg/mL (≈ 20.4 µM) | – | – | Not Active | 10 µg/mL (≈ 10.2 µM) | 20 µg/mL (≈ 20.4 µM) | 10 µg/mL (≈ 10.2 µM) | – | – | – | – | 20 µg/mL (≈ 20.4 µM) | 20 µg/mL (≈ 20.4 µM) | –
6 | CC[C@@H](C)[C@@H](NC(=O)[C@H](CC1CCCCC1)NC(=O)[C@@H](Cc1c[nH]c2ccccc12)NC(=O)[C@@H](N)CCCN)C(=O)N[C@H](Cc1ccccc1)C(=O)N[C@@H](Cc1cn(Cc2ccccc2)cn1)C(N)=O (H-[Orn][dW][Cha][dI][dF][His(τ-Bzl)]-NH2) | – | 20 µg/mL (≈ 20.9 µM) | – | 20 µg/mL (≈ 20.9 µM) | – | – | 10 µg/mL (≈ 10.4 µM) | 20 µg/mL (≈ 20.9 µM) | 20 µg/mL (≈ 20.9 µM) | 20 µg/mL (≈ 20.9 µM) | – | 20 µg/mL (≈ 20.9 µM) | – | 10 µg/mL (≈ 10.4 µM) | – | – | – | – | – | 20 µg/mL (≈ 20.9 µM) | MFC [19]: 2.5 µg/mL (≈ 2.61 µM)
